Measurements reported in patent US20240325433A1, “MOLECULAR ASSOCIATION OF BILE ACID OR BILE SALT AND PHARMACEUTICAL COMPOSITION COMPRISING SAME FOR LOCALLY REDUCING FAT” (SCAI THERAPEUTICS CO., LTD., priority 2021, published 2024).

Legend:
[1] = SD rat skin penetration test: DCA distribution in subcutaneous tissue, skin and plasma; design: species or system SD rats; conditions: in vivo, sc
Description: The interscapular region (back of the neck near the ear) of 10-week-old SD rats (280-350 g) with sufficient subcutaneous adipose tissue was shaved and anesthetized.

[2] = cited from earlier work
[3] = test system: 3T3-L1 preadipocytes; test: Preadipocyte cytotoxicity (cell counting kit-8); assay type: cell-based; conditions: treated 4 hours
Description: 3T3-L1 preadipocytes were inoculated into a 96 well plate at 5×10^3 per well, grown in medium (high glucose DMEM, 10% bovine calf serum, 1% penicillin/streptomycin) for 16 hours. The drug was prepared to contain 0.04% and 0.08%, respectively, and then treated for 4 hours. After adding 10 μl of Dojingo CK04-11 cell counting kit-8 to each well according to the manual, reacting for 2 hours, the absorbance at 450 nm was measured with a spectrophotometer to compare preadipocyte cytotoxicity.

[4] = test system: dermis white adipose tissue; test: SD rat skin penetration test: histological analysis (H&E, Masson's trichome staining); assay type: in vivo, SD rats; conditions: 1%, 500 μL subcutaneous injection
Description: The interscapular region (back of the neck near the ear) of 10-week-old SD rats (280-350 g) with sufficient subcutaneous adipose tissue was shaved and anesthetized. […].
Then, tissues (skin, subcutaneous tissue) of the interscapular region were collected, fixed, and subjected to H&E staining and Masson's trichome staining. Tissue changes were investigated through microscopic observation.

**Q.** For C[C@H](CCC(=O)O)[C@H]1CC[C@H]2[C@@H]3CC[C@@H]4C[C@H](O)CC[C@]4(C)[C@H]3C[C@H](O)[C@]12C [deoxycholic acid], which “amount of DCA in subcutaneous tissue” value [1] is on record?
**A.** Its value is “gradually decreased”.

**Q.** What about the solubility in water [2] of the same compound?
**A.** The solubility in water was 0.024%.

**Q.** And the “preadipocyte cytotoxicity (comparison between materials)” value ([3]; 0.04%)?
**A.** Its value is “the same”.

**Q.** What about the “survival rate of preadipocytes” value ([3]; 0.08%, absorbance 450 nm) of the same compound?
**A.** Its value is 24.6%.

**Q.** What about the “H&E staining: tissue change” value [4] of the same compound?
**A.** The value was “severe tissue damage was observed”.

**Q.** What about the “Masson's trichome staining: tissue change” value [4] of the same compound?
**A.** The value was “hematoma and edema occurred in the tissue”.
